Some test systems named below: TK-10 renal; HCT-15 colon; NCI-H23 lung; SF-539 CNS; ACHN renal; SNB-19 CNS; MCF7 breast; HL-60(TB) leukemia; OVCAR-4 ovarian; OVCAR-5 ovarian.
Holding throughout (assay): inhibition of tumour cell growth, NCI panel, 48 h

This note sets out measurements from PubChem BioAssay (NCI).

Each structure is given as a SMILES string.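 48-hour exposure; five concentrations; linearly interpolated endpoints. GI50 is the concentration that inhibits growth by half. At the TGI there is no net growth.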 A value given as a limit tells only on which side of the number the result lay.

`CCN1c2ccccc2C(Cl)(c2ccc(N(C)C)cc2)c2ccccc21`: the GI50 is 11.1 µM in the experiment on TK-10 renal; 11.9 µM with HCT-15 colon; 3.04 µM in the experiment on NCI-H23 lung; 15.5 µM in the experiment on SF-539 CNS; 12.4 µM with ACHN renal; 5.44 µM in the experiment on SNB-19 CNS. The GI50 with MCF7 breast was 10.3 µM; with HL-60(TB) leukemia it was 1.89 µM; in the experiment on OVCAR-4 ovarian it was 11.9 µM; in the experiment with OVCAR-5 ovarian, 17.7 µM. The TGI with TK-10 renal came out at 29.1 µM; with HCT-15 colon, 49.4 µM; in the experiment on NCI-H23 lung, 14.4 µM; in the experiment with SF-539 CNS it was 29.2 µM; with ACHN renal, 28.4 µM; in the experiment on SNB-19 CNS it was 19.1 µM. Further, the TGI in the experiment with MCF7 breast was 30.5 µM; in the experiment with HL-60(TB) leukemia, 4.7 µM; in the experiment with OVCAR-4 ovarian, 25.3 µM; in the experiment on OVCAR-5 ovarian, 34.9 µM.

In the case of `C=C(c1ccc(C(=O)N(C)c2ccccc2N)cc1)C(C)N1C(=O)[C@H]2CCCN2C(=O)c2ccccc21` (stereo not given in full), the GI50 was 45.5 µM with TK-10 renal; 46.5 µM in the experiment on HCT-15 colon; 61.6 µM in the experiment with NCI-H23 lung; 42.3 µM with SF-539 CNS; 36.5 µM with ACHN renal; over 100 µM in the experiment on SNB-19 CNS. The GI50 in the experiment on MCF7 breast is 23.2 µM; in the experiment with HL-60(TB) leukemia, 20.2 µM; in the experiment with OVCAR-4 ovarian, 2.91 µM; in the experiment with OVCAR-5 ovarian, 11.5 µM. Also, the TGI in the experiment with TK-10 renal, in the experiment on HCT-15 colon, in the experiment with NCI-H23 lung, in the experiment with SF-539 CNS, in the experiment on ACHN renal and in the experiment on SNB-19 CNS was over 100 µM throughout. Moreover, the TGI with MCF7 breast is over 100 µM; with HL-60(TB) leukemia it was 80.2 µM; in the experiment on OVCAR-4 ovarian, 41.2 µM; in the experiment with OVCAR-5 ovarian, over 100 µM.

As to `O=C(O)c1ccc(N/C=C2\C(=O)c3ccccc3OC2O)cc1O` (stereo not given), the GI50 was 36 µg/mL in the experiment with TK-10 renal; 6.17 µg/mL in the experiment on HCT-15 colon; 19 µg/mL in the experiment with NCI-H23 lung; 16.5 µg/mL in the experiment on SF-539 CNS; 29 µg/mL in the experiment on ACHN renal; 18.4 µg/mL with SNB-19 CNS. Also, the GI50 in the experiment on MCF7 breast was 12.6 µg/mL; with HL-60(TB) leukemia, 9.35 µg/mL; in the experiment with OVCAR-4 ovarian, 20.6 µg/mL; in the experiment with OVCAR-5 ovarian it was 31.2 µg/mL. The TGI in the experiment with TK-10 renal turned out to be 106 µg/mL; in the experiment on HCT-15 colon, 26.6 µg/mL; with NCI-H23 lung it was 58.4 µg/mL; with SF-539 CNS, 39.1 µg/mL; with ACHN renal it was 84.6 µg/mL; with SNB-19 CNS it was 72.4 µg/mL. In addition, the TGI was 81.8 µg/mL in the experiment with MCF7 breast, over 150 µg/mL with HL-60(TB) leukemia, over 150 µg/mL in the experiment on OVCAR-4 ovarian and 78.5 µg/mL in the experiment on OVCAR-5 ovarian.

As to `COc1ccc(C(=O)c2cc3c(OC)c(OC)c(OC)cc3[nH]2)cc1`, the GI50 with TK-10 renal was 39.6 µM; in the experiment with HCT-15 colon, 2.23 µM; in the experiment on NCI-H23 lung it was 6.25 µM; in the experiment on SF-539 CNS, 4.76 µM; in the experiment on ACHN renal, 12.8 µM; in the experiment with SNB-19 CNS it was 18.6 µM. Also, the GI50 was 1.32 µM with MCF7 breast, 2.24 µM in the experiment on HL-60(TB) leukemia, over 100 µM in the experiment on OVCAR-4 ovarian and 66.9 µM in the experiment with OVCAR-5 ovarian. For the same compound, the TGI with TK-10 renal, in the experiment with HCT-15 colon, with NCI-H23 lung, in the experiment with SF-539 CNS, with ACHN renal and with SNB-19 CNS was over 100 µM throughout. Besides, the TGI is over 100 µM in the experiment on MCF7 breast, 61.8 µM in the experiment on HL-60(TB) leukemia, over 100 µM with OVCAR-4 ovarian and over 100 µM with OVCAR-5 ovarian.

Consider `O=C(Cc1cccc(OC(F)(F)F)c1)Nc1ccc(CCCCc2nnc(NC(=O)Cc3ccccn3)s2)nn1`, for which the GI50 is 11.7 µM in the experiment on TK-10 renal; over 100 µM with HCT-15 colon; 13.1 µM in the experiment with NCI-H23 lung; 15.7 µM in the experiment with SF-539 CNS; 20.9 µM in the experiment on ACHN renal; 29.4 µM with SNB-19 CNS. The GI50 in the experiment with MCF7 breast was 16.5 µM; in the experiment on HL-60(TB) leukemia, 8.34 µM; with OVCAR-4 ovarian, 7.23 µM; with OVCAR-5 ovarian, over 100 µM. Also, the TGI in the experiment on TK-10 renal is 24.5 µM; in the experiment on HCT-15 colon it was over 100 µM; in the experiment on NCI-H23 lung, 45.8 µM; in the experiment on SF-539 CNS, 50.3 µM; in the experiment with ACHN renal, over 100 µM; in the experiment with SNB-19 CNS, over 100 µM. Also, the TGI in the experiment with MCF7 breast was over 100 µM; with HL-60(TB) leukemia it was over 100 µM; in the experiment with OVCAR-4 ovarian, 29 µM; in the experiment with OVCAR-5 ovarian, over 100 µM.

As for `COc1ccc2c(c1)C(c1ccccc1Cl)=Nc1c(n[nH]c1C)N2`, the GI50 was over 25 µM in the experiment with TK-10 renal; 14 µM in the experiment with HCT-15 colon; 22.6 µM in the experiment with NCI-H23 lung; 4.95 µM in the experiment on SF-539 CNS; over 20.5 µM in the experiment on ACHN renal; over 25 µM with SNB-19 CNS. Also, the GI50 with MCF7 breast was 13.7 µM; with HL-60(TB) leukemia it was over 25 µM; with OVCAR-4 ovarian, over 25 µM; with OVCAR-5 ovarian, over 25 µM. In addition, the TGI in the experiment with TK-10 renal is over 25 µM; in the experiment on HCT-15 colon it was over 25 µM; in the experiment with NCI-H23 lung, over 25 µM; with SF-539 CNS it was over 18.8 µM; with ACHN renal, over 25 µM; in the experiment on SNB-19 CNS, over 25 µM. The TGI with MCF7 breast, in the experiment with HL-60(TB) leukemia, in the experiment with OVCAR-4 ovarian and with OVCAR-5 ovarian was over 25 µM in each case.

Take `COc1ccc2c(c1)C(=O)/C(=C/c1ncc([N+](=O)[O-])n1C)O2`: the GI50 with TK-10 renal was 1.38 µM; in the experiment with HCT-15 colon it was 0.221 µM; in the experiment with NCI-H23 lung, 1.02 µM; in the experiment with SF-539 CNS, 1.55 µM; in the experiment with ACHN renal it was 0.204 µM; in the experiment with SNB-19 CNS it was 1.26 µM. Further, the GI50 is 0.32 µM in the experiment on MCF7 breast, 0.263 µM in the experiment with HL-60(TB) leukemia, 2.27 µM in the experiment on OVCAR-4 ovarian and 1.75 µM in the experiment with OVCAR-5 ovarian. The TGI in the experiment with TK-10 renal was found to be 13.8 µM; in the experiment on HCT-15 colon it was 0.629 µM; in the experiment with NCI-H23 lung, 4.76 µM; in the experiment with SF-539 CNS, 3.41 µM; in the experiment with ACHN renal it was 0.596 µM; in the experiment with SNB-19 CNS, 6.08 µM. The TGI with MCF7 breast stood at 7.98 µM; with HL-60(TB) leukemia, 1.37 µM; with OVCAR-4 ovarian, 7.12 µM; in the experiment on OVCAR-5 ovarian, 5.67 µM.
